Laboratory results taken from patent US3957812A, “Derivatives of 2-phenoxyacetamido-5-nitro-thiazole” (priority 1973, dated 1976).
Converted amounts (≈) assume the structure as drawn. Like-named read-outs stand apart in the source and are kept apart here.

Tests used:
[1] = tested on: Hymenolepis nana; test: Test for anthelminthics, cestodes (Hymenolepis nana); type: in vivo; set-up: Percentage of activity: concentration or dose not given beside the values; conditions: number of subjects 10
Excerpt: (§1) Biological tests have been performed with a great number of compounds of formula (I) using the following techniques: (1) Test for amoebicidal activity described by R. CAVIER, Ann. pharm. franc., 1960, 18, pages 583-589 and by R. CAVIER, and J. CENAC, Bull. Soc. Path. exot. 1972, 65, pages 399-404. (2) Test for trichomonacidal activity described by R. CAVIER and P. BUOT, Ann. pharm. franc., 1964, 22, pages 211-216 and by R. CAVIER and J. CENAC, Semaine des Hopitaux, 1972, 48, pages 391-394). (3) Tests for anthelminthics described for nematodes (such as Syphacia obvelata) by R. CAVIER, Bull. Soc. Path. exot., 1962, 55, pages 412-417 and, for cestodes (such as Hymenolepis nana), by R. CAVIER, Ann. pharm. franc., 1956, 14, pages 545-552 and by R. CAVIER and M. J. NOTTEGHEM, Ann. pharm. franc. 1968, 28, pages 603-606.

[2] = tested on: Enterococcus 9790; test: Determination of bacteriostatic doses, E. 9790; type: cell-based; conditions: gelose medium, 37°C, 24 hours; for MIC: Enterococcus, 9790, read-out: bacteriostatic dose, E. 9790
Procedure: (§2) (5) Method for determining bacteriostatic doses
(§3) A common gelose medium of the following composition is used.
(§4) The pH is adjusted at 7.2 and the medium is sterilized during 30 minutes at 120°C.
(§5) The same method as for the determination of fungistatic doses is used, except that the various dilutions of each compound are added to the gelose medium, the solvent concentration never exceeding 3%. Tubes containing […] of the compounds per ml are prepared.
(§6) Cultures of each strain in the liquid medium are prepared and, after 24 hours of incubation at 37°C, dilutions of these cultures in ordinary broth are prepared as follows:
(§7) By means of these dilutions, scratches of a length of 4 to 5 cm are made on the previously dried surface of the gelose medium to which various amounts of the compound to be tested have been added.

[3] = tested on: Microsporum felineum; test: Determination of fungistatic doses, M.f.; type: cell-based; conditions: liquid Sabouraud medium, 25°C, 10 days
Procedure: (§8) (4) Method for determining fungistatic doses:
(§9) A liquide Sabouraud medium having the following composition is used:
(§10) If necessary, the pH is adjusted at 6.4 and the medium is sterilized.
(§11) The compounds are dissolved in dimethylformamide to which polyethylene glycol is sometimes added. From the mother-liquor, successive diluted solutions are prepared in the liquid Sabouraud medium, so as to obtain concentrations of 1, 3, 10, 30 100 and […] per ml. For the first dilution, one should not add more than 10% of the mother-liquor to the Sabouraud medium. Subsequently 9 ml per tube of the various solutions in the liquid Sabouraud medium are distributed.
(§12) Reference tubes corresponding to the highest solvent concentrations are also prepared.
(§13) Cultures of the various dermatophyte strains on Sabouraud gelose medium are prepared. From 1 to 2 months old cultures, homogeneous suspensions of said cultures in the liquid Sabouraud medium are prepared, the obtained suspensions being stirred in the presence of glass pearls having a light transmission of about 40%.
(§14) One drop of said suspension is introduced in the tubes containing the various concentrations of the compound to be tested.
(§15) at 25°C ± 2°C in the dark
(§16) 10 days of incubation for dermatophytes.

[4] = tested on: Proteus morganii IP 53185; test: Determination of bacteriostatic doses, P. morg.; type: cell-based; conditions: gelose medium, 37°C, 24 hours
Procedure: as §2, §3, §4, §5, §6
Proteus morganii IP 53185
as §7

[5] = tested on: Pseudomonas aeruginosa 8194; test: Determination of bacteriostatic doses, Pseudo 8194; type: cell-based; conditions: gelose medium, 37°C, 24 hours
Procedure: as §2, §3, §4, §5, §6
Pseudomonas aeruginosa 8194
as §7

[6] = tested on: Trichophyton mentagrophytes; test: Determination of fungistatic doses, T.m.; type: cell-based; conditions: liquid Sabouraud medium, 25°C, 10 days; for MIC: Trichophyton mentagrophytes, 240 h, read-out: fungistatic dose, T.m
Procedure: as §8, §9, §10, §11, §12, §13, §14, §15, §16

[7] = tested on: Syphacia obvelata; type: in vivo; set-up: Percentage of activity: concentration or dose not given beside the values; conditions: for Number of dead subjects (+): in vivo
Excerpt: as §1

[8] = tested on: Escherichia coli OIII B 4; test: Determination of bacteriostatic doses, O.III B 4; type: cell-based; conditions: gelose medium, 37°C, 24 hours
Procedure: as §2, §3, §4, §5, §6
Escherichia coli OIII B 4
as §7

[9] = tested on: Staphylococcus aureus 209 P; test: Determination of bacteriostatic doses, S. 209 P; type: cell-based; conditions: gelose medium, 37°C, 24 hours; for MIC: Staphylococcus aureus, 209P, read-out: bacteriostatic dose, S. 209 P
Procedure: as §2, §3, §4, §5, §6
Staphylococcus aureus 209 P
as §7

[10] = tested on: Shigella dysenteriae 3410; test: Determination of bacteriostatic doses, S. 3410; type: cell-based; conditions: for MIC: Shigella dysenteriae, 3410, 24 h, read-out: bacteriostatic dose, S. 3410
Procedure: as §2, §3, §4, §5, §6
Shigella dysenteriae 3410
as §7

[11] = tested on: Epidermo flocosum; test: Determination of fungistatic doses, E.f.; type: cell-based; conditions: liquid Sabouraud medium, 25°C, 10 days; for MIC: 240 h, read-out: fungistatic dose, E.f.
Procedure: as §8, §9, §10, §11, §12, §13, §14, §15, §16

[12] = tested on: Entomoeba dysenteriae; test: Test for amoebicidal activity; type: cell-based
Excerpt: as §1

[13] = tested on: Trichomonas vaginalis; test: Test for trichomonacidal activity; type: cell-based; conditions: for minimal effective concentration: Trichomonas vaginalis, read-out: Trichomonas vaginalis starting activity
Excerpt: as §1

[14] = tested on: fungi; test: Activity against fungi; type: cell-based; conditions: in words
Procedure: as §8, §9, §10, §11, §12, §13, §14, §15, §16

[15] = tested on: bacteria; test: Activity against bacteria; type: cell-based; conditions: in words
Procedure: as §2, §3, §4, §5, §6, §7

[16] = in vivo; conditions: mouse, po, orally administered to mice
Procedure: The LD50 of compounds PH 6099 and 5927, when orally administered to mice, is of more than 4000 mg/kg.

[17] = in vivo; conditions: mouse, ip, intraperitoneal administration to mice, read-out: acute toxicity (LD50)
[18] = tested on: Microsporum audouini; test: Determination of fungistatic doses, M.a.; type: cell-based; conditions: 240 h, liquid Sabouraud medium, 25°C, 10 days, read-out: fungistatic dose, M.a.
Procedure: as §8, §9, §10, §11, §12, §13, §14, §15, §16

[19] = tested on: Trichophyton rubrum; test: Determination of fungistatic doses, T.r.; type: cell-based; conditions: 240 h, liquid Sabouraud medium, 25°C, 10 days, read-out: fungistatic dose, T.r.
Procedure: as §8, §9, §10, §11, §12, §13, §14, §15, §16

[20] = tested on: Proteus vulgaris 8181; test: Determination of bacteriostatic doses, 8181; type: cell-based; conditions: gelose medium, 37°C, 24 hours, strain 8181, read-out: bacteriostatic dose, (8181) printed in column P. morg.
Procedure: as §2, §3, §4, §5, §6, §7

[21] = Syphacia obvelata, number of subjects 10

Compound | Number of dead subjects (+) [1] | Number of subjects from which the parasite has been eradicated (D) [1] | Percentage of activity [1] | Percentage of activity [7, 21] | Number of dead subjects (+) [7] | MIC [6] | MIC [9] | MIC [11] | further results
2-(2'-trifluoromethyl-3'-methylphenoxyacetamido)-5-nitrothiazole [PH 6306] | 0 | 0 | 0% | 0% | 0 | – | – | – | bacteriostatic dose, E. 9790 [2]: 100 µg/mL; fungistatic dose, M.f. [3]: 10 µg/mL; bacteriostatic dose, P. morg. [4]: 0 µg/mL; bacteriostatic dose, Pseudo 8194 [5]: 0 µg/mL; fungistatic dose, T.m [6]: 1 µg/mL; Number of subjects from which the parasite has been eradicated (D) [7, 21]: 0; bacteriostatic dose, O.III B 4 [8]: 0 µg/mL; bacteriostatic dose, S. 209 P [9]: 10 µg/mL; bacteriostatic dose, S. 3410 ([10]; gelose medium, 37°C, 24 hours): 0 µg/mL; fungistatic dose, E.f. [11]: 30 µg/mL; Entomoeba dysenteriae starting activity [12]: 5 mμ/ml
O=C(COc1ccccc1)Nc1ncc([N+](=O)[O-])s1 [2-phenoxyacetamido-5-nitro-thiazole] | – | – | – | – | – | – | – | – | activity against Trichomonas vaginalis ([13]; in words): no activity; activity against fungi [14]: no activity; activity against bacteria [15]: no activity; activity against Entomoeba dysenteriae ([12]; in words): no activity
O=C(COc1ccc(Cl)cc1)Nc1ncc([N+](=O)[O-])s1 [PH 5927] | 0 | 0 | 0% | 30% | 0 | 30 µg/mL (≈ 95.6 µM) | 100 µg/mL (≈ 319 µM) | 10 µg/mL (≈ 31.9 µM) | LD50 [16]: > 4000 mg/kg; LD50 [17]: > 4500 mg/kg
O=C(COc1ccc(Cl)cc1Cl)Nc1ncc([N+](=O)[O-])s1 [PH 6091] | 0 | 3 | 30% | 20% | 0 | 3 µg/mL (≈ 8.62 µM) | 3 µg/mL (≈ 8.62 µM) | 1 µg/mL (≈ 2.87 µM) | MIC ([3]; Microsporum, 240 h, read-out: fungistatic dose, M.f.): 30 µg/mL (≈ 86.2 µM)
O=C(COc1ccc(Br)cc1)Nc1ncc([N+](=O)[O-])s1 [PH 6092] | 0 | 1 | 10% | 10% | 0 | 100 µg/mL (≈ 279 µM) | 10 µg/mL (≈ 27.9 µM) | – | minimal effective concentration [13]: 100 µg/mL
Cc1cc(OCC(=O)Nc2ncc([N+](=O)[O-])s2)c(C(C)C)cc1Cl [PH 6099] | 0 | 4 | 40% | 20% | 0 | – | 3 µg/mL (≈ 8.11 µM) | – | MIC [2]: 300 µg/mL (≈ 811 µM); minimal effective concentration [13]: 100 µg/mL; MIC [18]: 0.1 µg/mL (≈ 0.27 µM); MIC [10]: 300 µg/mL (≈ 811 µM); LD50 [16]: > 4000 mg/kg; LD50 [17]: ~200 mg/kg; MIC [19]: 2 µg/mL (≈ 5.41 µM)
O=C(COc1cc(Cl)ccc1Cl)Nc1ncc([N+](=O)[O-])s1 [PH 6159] | 0 | 2 | 20% | 0% | 0 | 30 µg/mL (≈ 86.2 µM) | – | – | –
O=C(COc1ccc(F)cc1)Nc1ncc([N+](=O)[O-])s1 [PH 6160] | 0 | 0 | 0% | 0% | 0 | 4 µg/mL (≈ 13.5 µM) | 10 µg/mL (≈ 33.6 µM) | 1 µg/mL (≈ 3.36 µM) | MIC [18]: 4 µg/mL (≈ 13.5 µM); MIC [10]: 100 µg/mL (≈ 336 µM); MIC [19]: 4 µg/mL (≈ 13.5 µM)
O=C(COc1cc(C(F)(F)F)cc(C(F)(F)F)c1)Nc1ncc([N+](=O)[O-])s1 [PH 6167] | 0 | 7 | 70% | 40% | 0 | 1 µg/mL (≈ 2.41 µM) | 3 µg/mL (≈ 7.22 µM) | 1 µg/mL (≈ 2.41 µM) | MIC [2]: 10 µg/mL (≈ 24.1 µM)
O=C(COc1c(F)c(F)c(F)c(F)c1F)Nc1ncc([N+](=O)[O-])s1 [PH 6168] | 0 | 2 | 20% | 0% | 0 | 1 µg/mL (≈ 2.71 µM) | 10 µg/mL (≈ 27.1 µM) | 1 µg/mL (≈ 2.71 µM) | MIC [20]: 300 µg/mL (≈ 813 µM); MIC [2]: 10 µg/mL (≈ 27.1 µM); MIC ([8]; Escherichia coli, OIIIB4, read-out: bacteriostatic dose, O.III B 4): 300 µg/mL (≈ 813 µM); MIC [18]: 3 µg/mL (≈ 8.13 µM); MIC [10]: 300 µg/mL (≈ 813 µM)
Cc1cc(Cl)c(OCC(=O)Nc2ncc([N+](=O)[O-])s2)cc1C [PH 6305] | 0 | 0 | 0% | 10% | 0 | – | – | – | –
Cc1cc(OCC(=O)Nc2ncc([N+](=O)[O-])s2)ccc1Cl [PH 6314] | 0 | 0 | 0% | 0% | 0 | – | 3 µg/mL (≈ 9.15 µM) | – | minimal effective concentration [13]: 2.5 µg/mL
